In ChEMBL document CHEMBL5325400 (Eur J Med Chem, 2023):
Active and inactive are the calls of the source. The calls are words filed in the database; no cut-off is given here.

Legend:
SK-OV-3 = experiment: Antiproliferative activity against human SK-OV-3 cells assessed as inhibition of cell growth measured after 48 hrs by MTT assay; assay type: functional, cell-based; settings: SK-OV-3, 48 h
A549 [1] = experiment: Antiproliferative activity against human A549 cells expressing lentivirus RNAi VTI-96659 assessed as inhibition of cell growth measured after 48 hrs by MTT assay; assay type: functional, cell-based
A549 [2] = experiment: Inhibition of colony formation in human A549 cells at 20 nM incubated for 6 days by crystal violet staining based analysis; assay type: functional, cell-based; settings: time 6.0 day
Tubulin (Homo sapiens) = Tubulin (Homo sapiens) (UniProt P68371+Q9H4B7+P0DPH7+P68366+Q13509+Q71U36+P04350+Q3ZCM7+P07437+P68363+Q9BQE3+Q6PEY2+Q13885+Q9BVA1+Q9BUF5); experiment: Inhibition of tubulin polymerization in human A549 cells assessed as microtubule network polymerization at 100 nM measured after 18 hrs by Alexa Fluor 488 and DAPI staining based confocal microscopic analysis; assay type: cell-based
A549 [3] = experiment: Induction of apoptosis in human A549 cells assessed as late apoptotic cells at 20 nM incubated for 24 hrs by annexin V-FITC/propidium iodide staining based flow cytometry analysis (reference value: 0.37%); assay type: functional
A549 [4] = experiment: Antimigratory activity against human A549 cells assessed as inhibition of cell migration at 20 nM and incubated for 12 hrs by scratch wound healing assay (reference value: 29.5 +/- 1.34%); assay type: functional; set-up: scale not given: the % may be the effect or the level left
B16-F10 [5] = experiment: Antimigratory activity against mouse B16-F10 cells assessed as inhibition of cell migration at 20 nM and incubated for 12 hrs by scratch wound healing assay (reference value: 81.9 +/- 0.64%); assay type: functional; set-up: scale not given: the % may be the effect or the level left
B16-F10 [6] = experiment: Inhibition of cell migration in mouse B16-F10 cells assessed as total number of cells migrated at 20 nM incubated for 12 hrs by crystal violet staining based transwell assay (reference value: 692 +/- 11); assay type: functional
[7] = Half life in Sprague-Dawley rat at 1 mg/kg, iv by LC-MS analysis; assay type: ADME, organism-based; settings: in vivo
[8] = Toxicity in BALB/c mouse assessed as adverse effect at 10 mg/kg, ip; assay type: organism-based; settings: in vivo
A549 [9] = experiment: Antitumor activity against human A549 cells xenografted in BALB/c mouse assessed as tumor growth inhibition at 10 mg/kg, ip administered every other day for 25 days; assay type: functional; settings: A549, 600 h, time 25 day, read-out: TGI
A549 [10] = experiment: Antitumor activity against human A549 cells xenografted in BALB/c mouse assessed as tumor volume at 5 mg/kg, ip administered every other day for 25 days; assay type: functional; settings: time 25 day
A549 [11] = experiment: Antitumor activity against human A549 cells xenografted in BALB/c mouse assessed as tumor weight at 5 mg/kg, ip administered every other day for 25 days; assay type: functional, organism-based; settings: time 25.0 day
[12] = Toxicity in BALB/c mouse xenografted with human A549 cells assessed as change in body weight at 10 mg/kg, ip administered every other day for 25 days; assay type: organism-based; settings: in vivo, 600 h, time 25 day
A549 [13] = experiment: Antitumor activity against human A549 cells xenografted in BALB/c mouse assessed as upregulation of cleaved PARP expression in tumor at 10 mg/kg, ip administered every other day for 25 days by Western blotting analysis; assay type: functional, organism-based; settings: time 25.0 day
[14] = Toxicity in BALB/c nude mouse xenografted with human A549 cells assessed as pathological changes in lung at 5 to 10 mg/kg, ip administered every other day for 25 days by hematoxylin and eosin staining based microscopic analysis; assay type: organism-based; settings: in vivo, 600 h, dose 5-10 mg/kg, time 25 day
A2780 = experiment: cells; settings: Homo sapiens, A2780, 48 h
Description: Antiproliferative activity against human A2780 cells assessed as inhibition of cell growth incubated for 48 hrs by MTT assay

A549 [15] = experiment: Residual cell migration in human A549 cells at 5 nM incubated for 12 hrs by crystal violet staining based transwell assay; settings: A549, 12 h

COc1cccc(Nc2cc(Nc3cccc(NC(=O)C4CC4)c3)ncn2)c1
IC50 (SK-OV-3): 1.5 nM
Activity (A549 [1]): Active
inhibition (A549 [2]): Active
inhibition (Tubulin (Homo sapiens)): Active
Activity (A549 [3]): 16.31%
Activity (A549 [4]): 9.8%
Activity (B16-F10 [5]): 39.7%
Activity (B16-F10 [6]): 319
t1/2 [7]: 13.2 min
Activity [8]: Non-Toxic
inhibition in vivo at 10 mg/kg (A549 [9]): 65.4%
Activity (A549 [10]): 42.51%
Activity (A549 [11]): Active
Activity [12]: Non-Toxic
Activity (A549 [13]): Active
Activity [14]: Non-Toxic
IC50 (A2780): 16 nM
level, % of control at 0.005 µM (A549 [15]): 91.5%
